Test results: patent publication US8192962B2, “Processes for detecting toxic substances” (Daikin Industries, Ltd., priority 2001, dated 2012)

Test system: Metabolism protein genes
Assay: DNA chip mRNA expression in yeast, metabolism protein genes (Table 7)
Format: cell-based, Saccharomyces cerevisiae S288C
Summary of the method: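 Chemical exposure: 2 h, log-phase S. cerevisiae S288C, YPD, 25° C., dose set to inhibit growth without death. Profiling: mRNA labeled by reverse transcription with Cy3- or Cy5-dUTP, hybridized to whole-genome array. Output: fluorescence ratio against untreated culture.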

SMILES: N#Cc1c(Cl)c(Cl)c(Cl)c(C#N)c1Cl [(9), 2,4,5,6-tetrachloro-1,3-benzenedicarbonitrile]
- level of expressed mRNA in the presence/in the absence of chemical substance (yeast gene YJL121C): 0.1
- The level of expressed mRNA in the presence of chemical substance/The level of expressed mRNA in the absence of chemical substance (yeast gene YJL172W): 0.7
- The level of expressed mRNA in the presence of chemical substance/The level of expressed mRNA in the absence of chemical substance (yeast gene YJL219W): 4.0
- The level of expressed mRNA in the presence of chemical substance/The level of expressed mRNA in the absence of chemical substance (yeast gene YJL221C): 2.7
- level of expressed mRNA in the presence/in the absence of chemical substance (yeast gene YJR077C): 0.4
- The level of expressed mRNA in the presence of chemical substance/The level of expressed mRNA in the absence of chemical substance (yeast gene YJR137C): 9.0
- level of expressed mRNA in the presence/in the absence of chemical substance (yeast gene YJR143C): 0.1
- The level of expressed mRNA in the presence of chemical substance/The level of expressed mRNA in the absence of chemical substance (yeast gene YJR148W): 0.7
- The level of expressed mRNA in the presence of chemical substance/The level of expressed mRNA in the absence of chemical substance (yeast gene YJR155W): 38.2
- The level of expressed mRNA in the presence of chemical substance/The level of expressed mRNA in the absence of chemical substance (yeast gene YKL035W): 0.8
- level of expressed mRNA in the presence/in the absence of chemical substance (yeast gene YKL060C): 0.3
- The level of expressed mRNA in the presence of chemical substance/The level of expressed mRNA in the absence of chemical substance (yeast gene YKL091C): 2.3
- The level of expressed mRNA in the presence of chemical substance/The level of expressed mRNA in the absence of chemical substance (yeast gene YKL104C): 1.4
- level of expressed mRNA in the presence/in the absence of chemical substance (yeast gene YKL148C): 1.7
- The level of expressed mRNA in the presence of chemical substance/The level of expressed mRNA in the absence of chemical substance (yeast gene YKL152C): 0.9
- level of expressed mRNA in the presence/in the absence of chemical substance (yeast gene YKL157W): 1.7
- The level of expressed mRNA in the presence of chemical substance/The level of expressed mRNA in the absence of chemical substance (yeast gene YKL213C): 4.8
- The level of expressed mRNA in the presence of chemical substance/The level of expressed mRNA in the absence of chemical substance (yeast gene YKL215C): 1.3
- level of expressed mRNA in the presence/in the absence of chemical substance (yeast gene YKR034W): 0.5
- The level of expressed mRNA in the presence of chemical substance/The level of expressed mRNA in the absence of chemical substance (yeast gene YKR039W): 1.9
- The level of expressed mRNA in the presence of chemical substance/The level of expressed mRNA in the absence of chemical substance (yeast gene YLL058W): 3.5
- level of expressed mRNA in the presence/in the absence of chemical substance (yeast gene YLR006C): 1.1
- level of expressed mRNA in the presence/in the absence of chemical substance (yeast gene YLR058C): 0.2
- level of expressed mRNA in the presence/in the absence of chemical substance (yeast gene YLR081W): 0.1
- level of expressed mRNA in the presence/in the absence of chemical substance (yeast gene YLR089C): 0.5
- The level of expressed mRNA in the presence of chemical substance/The level of expressed mRNA in the absence of chemical substance (yeast gene YLR142W): 3.1
- The level of expressed mRNA in the presence of chemical substance/The level of expressed mRNA in the absence of chemical substance (yeast gene YLR164W): 5.3
- The level of expressed mRNA in the presence of chemical substance/The level of expressed mRNA in the absence of chemical substance (yeast gene YLR180W): 0.8
- The level of expressed mRNA in the presence of chemical substance/The level of expressed mRNA in the absence of chemical substance (yeast gene YLR260W): 2.6
- The level of expressed mRNA in the presence of chemical substance/The level of expressed mRNA in the absence of chemical substance (yeast gene YLR273C): 2.8
- level of expressed mRNA in the presence/in the absence of chemical substance (yeast gene YLR284C): 0.9
- The level of expressed mRNA in the presence of chemical substance/The level of expressed mRNA in the absence of chemical substance (yeast gene YLR299W): 4.9
- The level of expressed mRNA in the presence of chemical substance/The level of expressed mRNA in the absence of chemical substance (yeast gene YLR300W): 0.0
- level of expressed mRNA in the presence/in the absence of chemical substance (yeast gene YLR304C): 0.1
- The level of expressed mRNA in the presence of chemical substance/The level of expressed mRNA in the absence of chemical substance (yeast gene YLR307W): 0.6
- The level of expressed mRNA in the presence of chemical substance/The level of expressed mRNA in the absence of chemical substance (yeast gene YLR348C): 2.1
- level of expressed mRNA in the presence/in the absence of chemical substance (yeast gene YLR354C): 0.4
- level of expressed mRNA in the presence/in the absence of chemical substance (yeast gene YML022W): 0.3
- The level of expressed mRNA in the presence of chemical substance/The level of expressed mRNA in the absence of chemical substance (yeast gene YML042W): 3.8
- The level of expressed mRNA in the presence of chemical substance/The level of expressed mRNA in the absence of chemical substance (yeast gene YML054C): 4.1
- The level of expressed mRNA in the presence of chemical substance/The level of expressed mRNA in the absence of chemical substance (yeast gene YML070W): 4.5
- The level of expressed mRNA in the presence of chemical substance/The level of expressed mRNA in the absence of chemical substance (yeast gene YML100W): 1.7
- The level of expressed mRNA in the presence of chemical substance/The level of expressed mRNA in the absence of chemical substance (yeast gene YML110C): 2.7
- The level of expressed mRNA in the presence of chemical substance/The level of expressed mRNA in the absence of chemical substance (yeast gene YMR008C): 0.3
- level of expressed mRNA in the presence/in the absence of chemical substance (yeast gene YMR015C): 0.1
- The level of expressed mRNA in the presence of chemical substance/The level of expressed mRNA in the absence of chemical substance (yeast gene YMR020W): 2.3
- level of expressed mRNA in the presence/in the absence of chemical substance (yeast gene YMR083W): 0.4
- The level of expressed mRNA in the presence of chemical substance/The level of expressed mRNA in the absence of chemical substance (yeast gene YMR105C): 0.6
- The level of expressed mRNA in the presence of chemical substance/The level of expressed mRNA in the absence of chemical substance (yeast gene YMR189W): 0.7
- level of expressed mRNA in the presence/in the absence of chemical substance (yeast gene YMR205C): 0.3
- level of expressed mRNA in the presence/in the absence of chemical substance (yeast gene YMR261C): 1.6
- The level of expressed mRNA in the presence of chemical substance/The level of expressed mRNA in the absence of chemical substance (yeast gene YMR271C): 8.0
- The level of expressed mRNA in the presence of chemical substance/The level of expressed mRNA in the absence of chemical substance (yeast gene YMR296C): 0.4
- level of expressed mRNA in the presence/in the absence of chemical substance (yeast gene YMR323W): 0.5
- The level of expressed mRNA in the presence of chemical substance/The level of expressed mRNA in the absence of chemical substance (yeast gene YNL012W): 3.3
- level of expressed mRNA in the presence/in the absence of chemical substance (yeast gene YNL025C): 1.1
- The level of expressed mRNA in the presence of chemical substance/The level of expressed mRNA in the absence of chemical substance (yeast gene YNL037C): 0.6
- The level of expressed mRNA in the presence of chemical substance/The level of expressed mRNA in the absence of chemical substance (yeast gene YNL045W): 1.3
- The level of expressed mRNA in the presence of chemical substance/The level of expressed mRNA in the absence of chemical substance (yeast gene YNL104C): 1.1
- The level of expressed mRNA in the presence of chemical substance/The level of expressed mRNA in the absence of chemical substance (yeast gene YNL106C): 0.7
- The level of expressed mRNA in the presence of chemical substance/The level of expressed mRNA in the absence of chemical substance (yeast gene YNL169C): 1.1
- The level of expressed mRNA in the presence of chemical substance/The level of expressed mRNA in the absence of chemical substance (yeast gene YNL231C): 2.2
- The level of expressed mRNA in the presence of chemical substance/The level of expressed mRNA in the absence of chemical substance (yeast gene YNL264C): 3.3
- The level of expressed mRNA in the presence of chemical substance/The level of expressed mRNA in the absence of chemical substance (yeast gene YNL322C): 0.7
- The level of expressed mRNA in the presence of chemical substance/The level of expressed mRNA in the absence of chemical substance (yeast gene YNL331C): 42.6
- The level of expressed mRNA in the presence of chemical substance/The level of expressed mRNA in the absence of chemical substance (yeast gene YNL332W): 3.3
- The level of expressed mRNA in the presence of chemical substance/The level of expressed mRNA in the absence of chemical substance (yeast gene YNR002C): 3.9
- The level of expressed mRNA in the presence of chemical substance/The level of expressed mRNA in the absence of chemical substance (yeast gene YNR019W): 1.8
- The level of expressed mRNA in the presence of chemical substance/The level of expressed mRNA in the absence of chemical substance (yeast gene YNR033W): 3.6
- The level of expressed mRNA in the presence of chemical substance/The level of expressed mRNA in the absence of chemical substance (yeast gene YNR059W): 1.8
- The level of expressed mRNA in the presence of chemical substance/The level of expressed mRNA in the absence of chemical substance (yeast gene YNR071C): 3.1
- The level of expressed mRNA in the presence of chemical substance/The level of expressed mRNA in the absence of chemical substance (yeast gene YOL058W): 0.1
- level of expressed mRNA in the presence/in the absence of chemical substance (yeast gene YOL086C): 0.1
- The level of expressed mRNA in the presence of chemical substance/The level of expressed mRNA in the absence of chemical substance (yeast gene YOL126C): 0.8
- The level of expressed mRNA in the presence of chemical substance/The level of expressed mRNA in the absence of chemical substance (yeast gene YOL143C): 0.8
- The level of expressed mRNA in the presence of chemical substance/The level of expressed mRNA in the absence of chemical substance (yeast gene YOL153C): 2.5
- level of expressed mRNA in the presence/in the absence of chemical substance (yeast gene YOL156W): 2.3
- The level of expressed mRNA in the presence of chemical substance/The level of expressed mRNA in the absence of chemical substance (yeast gene YOL165C): 46.9
- level of expressed mRNA in the presence/in the absence of chemical substance (yeast gene YOR002W): 0.8
- level of expressed mRNA in the presence/in the absence of chemical substance (yeast gene YOR085W): 0.5
- The level of expressed mRNA in the presence of chemical substance/The level of expressed mRNA in the absence of chemical substance (yeast gene YOR099W): 0.6
- level of expressed mRNA in the presence/in the absence of chemical substance (yeast gene YOR108W): 0.4
- level of expressed mRNA in the presence/in the absence of chemical substance (yeast gene YOR128C): 0.3
- The level of expressed mRNA in the presence of chemical substance/The level of expressed mRNA in the absence of chemical substance (yeast gene YOR130C): 2.0
- The level of expressed mRNA in the presence of chemical substance/The level of expressed mRNA in the absence of chemical substance (yeast gene YOR136W): 0.3
- level of expressed mRNA in the presence/in the absence of chemical substance (yeast gene YOR142W): 1.1
- level of expressed mRNA in the presence/in the absence of chemical substance (yeast gene YOR176W): 1.0
- level of expressed mRNA in the presence/in the absence of chemical substance (yeast gene YOR178C): 0.2
- The level of expressed mRNA in the presence of chemical substance/The level of expressed mRNA in the absence of chemical substance (yeast gene YOR226C): 1.3
- The level of expressed mRNA in the presence of chemical substance/The level of expressed mRNA in the absence of chemical substance (yeast gene YOR336W): 1.7
- The level of expressed mRNA in the presence of chemical substance/The level of expressed mRNA in the absence of chemical substance (yeast gene YOR347C): 0.5
- The level of expressed mRNA in the presence of chemical substance/The level of expressed mRNA in the absence of chemical substance (yeast gene YOR377W): 3.8
- The level of expressed mRNA in the presence of chemical substance/The level of expressed mRNA in the absence of chemical substance (yeast gene YPL017C): 3.0
- level of expressed mRNA in the presence/in the absence of chemical substance (yeast gene YPL028W): 1.2
- level of expressed mRNA in the presence/in the absence of chemical substance (yeast gene YPL057C): 0.4
- level of expressed mRNA in the presence/in the absence of chemical substance (yeast gene YPL135W): 0.5
- The level of expressed mRNA in the presence of chemical substance/The level of expressed mRNA in the absence of chemical substance (yeast gene YPR026W): 0.9
- level of expressed mRNA in the presence/in the absence of chemical substance (yeast gene YPR113W): 0.4
- The level of expressed mRNA in the presence of chemical substance/The level of expressed mRNA in the absence of chemical substance (yeast gene YPR167C): 76.6
- level of expressed mRNA in the presence/in the absence of chemical substance (yeast gene YPR183W): 0.9
